Results published in patent US20110152313A1 (MACQUARIE UNIVERSITY, priority 2008, published 2011).

Assays:
Test in all cases: kinase binding screen (kinase-tagged T7 phage, qPCR), % Ctrl
CDKL5 = biological target: T1, CDKL5 (Homo sapiens, UniProt O76039)
T1 sequence (O76039 1-960): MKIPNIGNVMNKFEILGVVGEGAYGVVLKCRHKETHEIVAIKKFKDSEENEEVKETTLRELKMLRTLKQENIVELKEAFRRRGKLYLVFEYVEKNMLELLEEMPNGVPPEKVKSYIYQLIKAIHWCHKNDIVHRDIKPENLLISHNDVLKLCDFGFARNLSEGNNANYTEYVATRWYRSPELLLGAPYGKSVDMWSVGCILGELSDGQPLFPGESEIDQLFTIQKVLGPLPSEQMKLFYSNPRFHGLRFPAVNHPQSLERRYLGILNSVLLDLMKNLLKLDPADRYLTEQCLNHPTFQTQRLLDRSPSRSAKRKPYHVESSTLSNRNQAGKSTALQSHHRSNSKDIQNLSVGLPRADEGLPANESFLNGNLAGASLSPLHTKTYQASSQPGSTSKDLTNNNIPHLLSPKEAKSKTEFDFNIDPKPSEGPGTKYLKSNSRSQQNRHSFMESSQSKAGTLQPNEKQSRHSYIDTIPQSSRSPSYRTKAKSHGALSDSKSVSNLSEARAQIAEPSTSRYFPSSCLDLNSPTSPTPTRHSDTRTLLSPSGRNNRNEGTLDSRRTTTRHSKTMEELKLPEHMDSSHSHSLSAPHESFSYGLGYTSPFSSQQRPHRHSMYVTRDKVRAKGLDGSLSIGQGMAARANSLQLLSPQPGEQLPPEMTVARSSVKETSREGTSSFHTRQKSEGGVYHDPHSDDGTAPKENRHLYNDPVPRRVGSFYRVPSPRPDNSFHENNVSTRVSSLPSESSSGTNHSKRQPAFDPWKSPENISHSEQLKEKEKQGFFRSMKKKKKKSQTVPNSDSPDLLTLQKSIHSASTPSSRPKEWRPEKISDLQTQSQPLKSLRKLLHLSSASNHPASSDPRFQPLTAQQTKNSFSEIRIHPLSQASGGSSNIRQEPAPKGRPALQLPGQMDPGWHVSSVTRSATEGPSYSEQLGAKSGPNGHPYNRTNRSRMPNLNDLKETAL
Method in brief: (§1)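 Steps: grow T7 phage displaying kinase in BL21-derived E. coli; clarify lysate; combine with ligand-liganded, blocked beads and compound (single concentration, diluted from 40× DMSO stock); elute; quantify kinase by qPCR.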

CLK4 = CLK4 (Homo sapiens, UniProt Q9HAZ1)
Chain of CLK4 (Q9HAZ1 whole entry, species assumed): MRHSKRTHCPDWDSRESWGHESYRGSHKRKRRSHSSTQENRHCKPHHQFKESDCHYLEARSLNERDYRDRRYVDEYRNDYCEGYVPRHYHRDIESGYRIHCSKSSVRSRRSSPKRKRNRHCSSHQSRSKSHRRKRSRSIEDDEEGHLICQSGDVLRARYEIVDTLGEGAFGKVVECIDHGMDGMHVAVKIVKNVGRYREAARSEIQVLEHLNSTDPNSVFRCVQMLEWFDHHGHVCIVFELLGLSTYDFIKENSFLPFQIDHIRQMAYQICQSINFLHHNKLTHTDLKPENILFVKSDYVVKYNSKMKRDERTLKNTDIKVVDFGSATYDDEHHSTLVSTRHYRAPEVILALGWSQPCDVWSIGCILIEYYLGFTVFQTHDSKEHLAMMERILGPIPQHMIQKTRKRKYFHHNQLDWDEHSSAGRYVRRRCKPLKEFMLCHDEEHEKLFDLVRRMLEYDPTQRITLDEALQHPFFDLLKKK
Method in brief: as §1

PIM2 = PIM2 (Homo sapiens, UniProt Q9P1W9)
Chain of PIM2 (Q9P1W9 whole entry, species assumed): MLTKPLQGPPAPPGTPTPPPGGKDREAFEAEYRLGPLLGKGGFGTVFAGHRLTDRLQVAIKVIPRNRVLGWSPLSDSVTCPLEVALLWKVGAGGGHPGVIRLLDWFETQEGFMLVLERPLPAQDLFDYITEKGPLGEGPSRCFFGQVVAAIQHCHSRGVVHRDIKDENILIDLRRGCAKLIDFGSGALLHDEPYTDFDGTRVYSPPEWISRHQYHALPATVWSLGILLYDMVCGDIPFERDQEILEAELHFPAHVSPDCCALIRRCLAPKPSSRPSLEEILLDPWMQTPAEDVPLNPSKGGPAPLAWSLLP
Method in brief: as §1

BMPR1B = BMPR1B (Homo sapiens, UniProt O00238)
Chain of BMPR1B (O00238 14-502): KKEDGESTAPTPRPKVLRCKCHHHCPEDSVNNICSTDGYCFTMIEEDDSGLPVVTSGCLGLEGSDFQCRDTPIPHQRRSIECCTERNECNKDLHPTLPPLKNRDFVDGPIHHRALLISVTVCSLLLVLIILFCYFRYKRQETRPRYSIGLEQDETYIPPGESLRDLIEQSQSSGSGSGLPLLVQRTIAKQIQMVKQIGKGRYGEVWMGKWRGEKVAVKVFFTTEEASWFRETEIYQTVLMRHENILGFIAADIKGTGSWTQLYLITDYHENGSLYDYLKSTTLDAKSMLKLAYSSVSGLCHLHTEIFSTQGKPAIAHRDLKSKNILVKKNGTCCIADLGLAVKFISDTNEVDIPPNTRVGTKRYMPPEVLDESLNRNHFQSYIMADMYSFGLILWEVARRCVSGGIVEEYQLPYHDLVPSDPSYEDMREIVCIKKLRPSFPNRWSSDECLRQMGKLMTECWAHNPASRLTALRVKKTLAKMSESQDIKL
Method in brief: as §1

PIK3C2G = biological target: T2, PIK3C2G (Homo sapiens, UniProt O75747)
T2 sequence (O75747 1-1486): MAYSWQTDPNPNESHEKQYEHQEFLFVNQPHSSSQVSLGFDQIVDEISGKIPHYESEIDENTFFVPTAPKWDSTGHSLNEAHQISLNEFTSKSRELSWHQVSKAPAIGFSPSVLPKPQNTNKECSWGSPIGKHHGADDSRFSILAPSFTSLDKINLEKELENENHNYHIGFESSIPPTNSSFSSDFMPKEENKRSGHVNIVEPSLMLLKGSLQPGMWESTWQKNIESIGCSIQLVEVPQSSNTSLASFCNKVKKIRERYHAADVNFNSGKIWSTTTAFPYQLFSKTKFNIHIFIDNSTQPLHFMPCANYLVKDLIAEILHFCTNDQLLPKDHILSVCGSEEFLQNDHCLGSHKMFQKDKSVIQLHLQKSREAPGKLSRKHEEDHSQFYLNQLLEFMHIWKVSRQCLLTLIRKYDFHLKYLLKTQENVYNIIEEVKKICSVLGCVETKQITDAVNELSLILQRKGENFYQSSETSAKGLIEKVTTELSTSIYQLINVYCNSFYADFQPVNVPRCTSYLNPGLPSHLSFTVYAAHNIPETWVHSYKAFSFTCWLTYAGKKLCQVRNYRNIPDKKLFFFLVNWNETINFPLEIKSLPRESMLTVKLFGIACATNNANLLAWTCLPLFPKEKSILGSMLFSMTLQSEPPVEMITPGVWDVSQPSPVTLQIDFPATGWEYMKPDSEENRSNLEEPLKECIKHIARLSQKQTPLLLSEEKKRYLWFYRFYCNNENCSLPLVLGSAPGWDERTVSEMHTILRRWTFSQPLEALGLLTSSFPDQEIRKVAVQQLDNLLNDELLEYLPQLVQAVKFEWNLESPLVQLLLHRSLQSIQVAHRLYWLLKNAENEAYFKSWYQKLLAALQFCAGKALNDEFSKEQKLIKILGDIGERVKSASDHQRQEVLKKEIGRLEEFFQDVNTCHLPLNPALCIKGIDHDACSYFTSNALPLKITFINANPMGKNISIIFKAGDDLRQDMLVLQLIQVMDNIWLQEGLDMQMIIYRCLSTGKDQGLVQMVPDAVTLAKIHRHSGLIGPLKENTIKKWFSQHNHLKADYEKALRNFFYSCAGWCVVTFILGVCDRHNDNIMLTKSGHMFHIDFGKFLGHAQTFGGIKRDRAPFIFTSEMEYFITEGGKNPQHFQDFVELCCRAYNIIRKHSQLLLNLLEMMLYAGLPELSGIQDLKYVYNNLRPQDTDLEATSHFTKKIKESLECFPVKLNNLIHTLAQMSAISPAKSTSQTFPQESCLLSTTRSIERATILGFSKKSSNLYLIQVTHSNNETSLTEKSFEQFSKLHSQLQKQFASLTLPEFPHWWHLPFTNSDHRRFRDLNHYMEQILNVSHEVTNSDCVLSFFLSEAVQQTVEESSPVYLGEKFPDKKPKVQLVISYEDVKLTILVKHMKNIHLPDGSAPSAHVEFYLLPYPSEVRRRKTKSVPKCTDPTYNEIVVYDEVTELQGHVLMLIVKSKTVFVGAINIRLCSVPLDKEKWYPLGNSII
Method in brief: as §1

SMILES	remaining activity at 1 µM (CDKL5) [%]	remaining activity at 1 µM (CLK4) [%]	remaining activity at 1 µM (PIM2) [%]	remaining activity at 1 µM (BMPR1B) [%]	remaining activity at 1 µM (PIK3C2G) [%]	remaining activity at 10 µM (CDKL5; 10 μM) [%]	remaining activity at 10 µM (CLK4; 10 μM) [%]	remaining activity at 10 µM (PIM2; 10 μM) [%]	remaining activity at 10 µM (BMPR1B; 10 μM) [%]	remaining activity at 10 µM (PIK3C2G; 10 μM) [%]
Nc1nc2c(-c3ccccn3)nccc2[nH]1 [drawing 35, 4-(pyrid-2-yl)-1H-imidazo[4,5-c]pyridin-2-amine]	50	60	100	85	66	–	–	–	–	–
Nc1nc2c(-c3cc(Br)c(Br)[nH]3)nccc2[nH]1 [Ageladine A, ageladine A, reference compound]	54	51	56	100	99	40	11	21	78	80
Nc1nc2c(-c3cnc4ccccc4c3)nccc2[nH]1 [drawing 36, 4-(quinolin-3-yl)-1H-imidazo[4,5-c]pyridin-2-amine]	54	65	100	0	30	–	–	–	–	–
